Test results: ChEMBL document CHEMBL5532761, “Rosavin improves insulin resistance and alleviates hepatic and kidney damage via modulating the cGAS-STING pathway and autophagy signaling in HFD/STZ-induced T2DM animals” (2024)
Calls of active or inactive are those of the source. The calls are words filed in the database; no cut-off is given here.

Tests used:
Rattus norvegicus [1] = assay: (§1) Antidiabetic activity in high fat diet-STZ induced diabetic Wistar rat model assessed as blood urea nitrogen level at 30 mg/kg, ip pretreated with high fat diet for 4 weeks followed by 8 hrs fasting after STZ administration and measured 4 weeks after compound treatment (reference value: 466.4 +/- 51.16 mg%); assay type: functional
Rattus norvegicus [2] = assay: as §1, with “cholesterol” for “blood urea nitrogen”, “20” for “30”, “10.39” for “466.4”, “1.3 mmol/L)” for “51.16 mg%)”; assay type: functional
Rattus norvegicus [3] = assay: as §1, with “LDL-cholesterol” for “blood urea nitrogen”, “6.54” for “466.4”, “0.918 mmol/L)” for “51.16 mg%)”; assay type: functional
Rattus norvegicus [4] = assay: (§2) Antidiabetic activity in high fat diet-STZ induced diabetic Wistar rat model assessed as mean area percentage of LC3B in kidney at 30 mg/kg, ip pretreated with high fat diet for 4 weeks followed by 8 hrs fasting after STZ administration and measured after 4 weeks of compound treatment by immunohistochemistry based microscopic analysis (reference value: 2.47 +/- 0.356 %); assay type: functional
Rattus norvegicus [5] = assay: (§3) Antidiabetic activity in high fat diet-STZ induced diabetic Wistar rat model assessed as increase in body weight at 10 to 30 mg/kg, ip pretreated with high fat diet for 4 weeks followed by 8 hrs fasting after STZ administration and measured 4 weeks after compound treatment; assay type: functional, organism-based; settings: dose 10-30 mg/kg
Rattus norvegicus [6] = assay: (§4) Antidiabetic activity in high fat diet-STZ induced diabetic Wistar rat model assessed as reduction in persistent tubular dilation in kidney at 20 mg/kg, ip pretreated with high fat diet for 4 weeks followed by 8 hrs fasting after STZ administration and measured 4 weeks after compound treatment by hematoxylin and eosin staining based microscopic analysis; assay type: functional, organism-based
Rattus norvegicus [7] = assay: as §1, with “10” for “30”; assay type: functional
Rattus norvegicus [8] = assay: as §2, with “20” for “30”; assay type: functional
Rattus norvegicus [9] = assay: as §3, with “AC074117.2 lncRNA expression in liver” for “body weight”, “treatment by RT-qPCR analysis” for “treatment”; assay type: functional, organism-based; settings: dose 10-30 mg/kg
Rattus norvegicus [10] = assay: as §1, with “triglyceride” for “blood urea nitrogen”, “17.05” for “466.4”, “0.803 mmol/L)” for “51.16 mg%)”; assay type: functional
Rattus norvegicus [11] = assay: as §4, with “inflammatory infiltrates” for “persistent tubular dilation”, “30” for “20”; assay type: functional, organism-based
Rattus norvegicus [12] = assay: as §4, with “binucleated cells” for “reduction”, “liver” for “persistent tubular dilation in kidney”, “30” for “20”; assay type: functional, organism-based
Rattus norvegicus [13] = assay: (§5) Antidiabetic activity in ip dosed high fat diet-STZ induced diabetic Wistar rat model assessed as reduction of DDX58 mRNA expression in kidney pretreated with high fat diet for 4 weeks followed by 8 hrs fasting after STZ administration and measured 4 weeks after compound treatment by RT-qPCR analysis; assay type: functional, organism-based; settings: dose 10-30 mg/kg
Rattus norvegicus [14] = assay: (§6) Antidiabetic activity in high fat diet-STZ induced diabetic Wistar rat model assessed as intact hepatocytes by measuring reduction in persistent fatty changes at 20 mg/kg, ip pretreated with high fat diet for 4 weeks followed by 8 hrs fasting after STZ administration and measured 4 weeks after compound treatment by hematoxylin and eosin staining based microscopic analysis; assay type: functional, organism-based
Rattus norvegicus [15] = assay: as §6, with “as” for “as intact hepatocytes by measuring”, “degenerative” for “persistent fatty”, “changes in liver” for “changes”, “30” for “20”; assay type: functional, organism-based
Rattus norvegicus [16] = assay: as §1, with “20” for “30”; assay type: functional
Rattus norvegicus [17] = assay: as §4, with “abnormal infiltrates” for “persistent tubular dilation”, “liver” for “kidney”; assay type: functional, organism-based
Rattus norvegicus [18] = assay: as §3, with “AC074117.2 lncRNA expression in kidney” for “body weight”, “treatment by RT-qPCR analysis” for “treatment”; assay type: functional, organism-based; settings: dose 10-30 mg/kg
Rattus norvegicus [19] = assay: Antidiabetic activity in ip dosed high fat diet-STZ induced diabetic Wistar rat model assessed as reduction of miR-1976 expression in kidney pretreated with high fat diet for 4 weeks followed by 8 hrs fasting after STZ administration and measured 4 weeks after compound treatment by RT-qPCR analysis; assay type: functional, organism-based; settings: dose 10-30 mg/kg
Rattus norvegicus [20] = assay: as §4, with “in” for “in persistent”, “degenerative changes” for “dilation”, “10” for “20”; assay type: functional, organism-based
Rattus norvegicus [21] = assay: as §5, with “STING” for “DDX58”, “adipose tissue” for “kidney”; assay type: functional, organism-based; settings: dose 10-30 mg/kg
Rattus norvegicus [22] = assay: as §2, with “TNFalpha” for “LC3B”, “24” for “2.47”, “1.5” for “0.356”; assay type: functional
Rattus norvegicus [23] = assay: as §6, with “protection against vacuolar” for “intact hepatocytes by measuring reduction in persistent fatty”, “changes throughout hepatic lobules” for “changes”, “10” for “20”; assay type: functional, organism-based
Rattus norvegicus [24] = assay: as §4, with “appearance of apparent intact segments” for “reduction in persistent tubular dilation”, “10” for “20”; assay type: functional, organism-based
Rattus norvegicus [25] = assay: as §1, with “HDL-cholesterol” for “blood urea nitrogen”, “20” for “30”, “0.688” for “466.4”, “0.288 mmol/L)” for “51.16 mg%)”; assay type: functional
Rattus norvegicus [26] = assay: as §1, with “cholesterol” for “blood urea nitrogen”, “10.39” for “466.4”, “1.3 mmol/L)” for “51.16 mg%)”; assay type: functional

`O[C@@H]1[C@@H](O)[C@H](OC/C=C/c2ccccc2)O[C@H](CO[C@@H]2OC[C@H](O)[C@H](O)[C@H]2O)[C@H]1O` was tested, and the Activity (Rattus norvegicus [1]) was 172.3 mg%, the Activity (Rattus norvegicus [2]) was 4.27 mmol/L and the Activity (Rattus norvegicus [3]) was 1.3 mmol/L. The Activity (Rattus norvegicus [4]) was 12.7%, the Activity (Rattus norvegicus [5]) was “Active” and the Activity (Rattus norvegicus [6]) was “Active”. The Activity (Rattus norvegicus [7]) was 254.7 mg%, the Activity (Rattus norvegicus [8]) was 11.23% and the Activity (Rattus norvegicus [9]) was “Active”. For the same compound, the Activity (Rattus norvegicus [10]) was 4.03 mmol/L, the Activity (Rattus norvegicus [11]) was “Active” and the Activity (Rattus norvegicus [12]) was “Active”. The Activity (Rattus norvegicus [13]) was “Dose-Dependent Effect”, the Activity (Rattus norvegicus [14]) was “Active” and the Activity (Rattus norvegicus [15]) was “Active”. For the same compound, the Activity (Rattus norvegicus [16]) was 213.3 mg%, the Activity (Rattus norvegicus [17]) was “Active” and the Activity (Rattus norvegicus [18]) was “Active”. For the same compound, the Activity (Rattus norvegicus [19]) was “Dose-Dependent Effect”, the Activity (Rattus norvegicus [20]) was “inactive” and the Activity (Rattus norvegicus [21]) was “Dose-Dependent Effect”. For the same compound, the Activity (Rattus norvegicus [22]) was 3.98%, the Activity (Rattus norvegicus [23]) was “inactive” and the Activity (Rattus norvegicus [24]) was “inactive”. The Activity (Rattus norvegicus [25]) was 1.06 mmol/L and the Activity (Rattus norvegicus [26]) was 3.15 mmol/L.
